{"source": "patent US20110009416A1", "about": "“PH INDEPENDENT FORMULATIONS OF 6-(5-CHLORO-2-PYRIDYL)-5-[(4-METHYL-1-PIPERAZINYL)CARBONYLOXY]-7-OXO-6,7-DIHYDRO-5H-PYRROLO[3,4-b]PYRAZINE” (SEPRACOR INC., priority 2009, published 2011)", "assay": "Dissolution over time of uncoated 3 mg eszopiclone tablets (Hanson SR8-Plus apparatus, fiber optic UV at 305 nm)", "type": "physicochemical", "method": "Dissolution over time of eszopiclone free base compounded with various solid acids was compared to that of free base at body temperature (37° C.) in dissolution media at various pH values using Hanson Research SR8—Plus Dissolution Apparatus and C-Technologies Fiber Optic UV Probes at 305 nm (excipients subtracted at 410 nm). The dissolution media used were (a) pH 1 (0.1N HCl) 50 ml of conc HCl mixed in 6 L of water; (b) pH 4.5 acetate buffer (20 mM) 5.88 g of sodium acetate trihydrate dissolved in 6 L of water, pH adjusted to 4.5 with acetic acid; (c) pH 5.5 phosphate buffer (20 mM) 16.3 g of potassium dihydrogen phosphate in 6 L of water. pH adjusted to 5.5 with NaOH; (d) pH 6.8 phosphate buffer (20 mM) 16.3 g of potassium dihydrogen phosphate in 6 L of water. pH adjusted 6.8 with NaOH. A standard dissolution protocol was used. The standard solution (0.006 mg/mL of eszopiclone free base) was prepared by weighing a known amount (−20 mg) of the free base into a 100 mL volumetric flask. 10 mL of acetonitrile was added into the flask and sonicated until the solids dissolved completely. The solution was cooled to room temperature and made up to the 100 mL mark using media and mixed well. Dilute 3 mL to 100 mL using media. The tables were prepared by transferring 500 mL dissolution media into the 6 vessels. Blank readings were taken for all the probes using media. Standards were read for individual vessels. Probes were washed with media and then inserted back into each vessel. […] The dissolution program was started immediately and readings were taken at 305 nm for 60 min (every 1 min for 20 min and then every 10 min)\nThe following tables display results of dissolution experiments in deionized (DI) water of uncoated tablets formed from 3 mg free base IR eszopiclone (with no more than 0.3% (R)-zopiclone) with various acids. […] The pH values of the media was measured using a pH paper, in-situ at various time points during the dissolution experiment run in deionized (DI) water of uncoated tablets formed from 3 mg free base IR eszopiclone with 12% L-malic acid. […]", "data": [{"smiles": "CN1CCN(C(=O)O[C@H]2c3nccnc3C(=O)N2c2ccc(Cl)cn2)CC1", "note": "[free base, [(9S)-8-(5-chloropyridin-2-yl)-7-oxo-2,5,8-triazabicyclo[4.3.0]nona-1,3,5-trien-9-yl]-4-methyl piperazine-1-carboxylate]", "values": [{"measurement": "dissolution profile in water (in words)", "setting": "in water, FIG. 2 and FIG. 4, up to one hour", "result": "slow and incomplete"}, {"measurement": "dissolved at one hour", "setting": "in water, FIG. 4, one hour", "result": "less than 50%"}, {"measurement": "dissolution profile at pH 1 (in words)", "setting": "pH 1, FIG. 3", "result": "dissolve rapidly and completely"}]}]}
